Like-named read-outs stand apart in the source and are kept apart here.
How the values were obtained:
[1] = molecular target: T1, rat pituitary receptors (Rattus norvegicus, UniProt P30969); experiment: Receptor binding potency, rat pituitary receptors
T1 construct: from tissue; host or cells: rat pituitary
T1 sequence (P30969 1-327): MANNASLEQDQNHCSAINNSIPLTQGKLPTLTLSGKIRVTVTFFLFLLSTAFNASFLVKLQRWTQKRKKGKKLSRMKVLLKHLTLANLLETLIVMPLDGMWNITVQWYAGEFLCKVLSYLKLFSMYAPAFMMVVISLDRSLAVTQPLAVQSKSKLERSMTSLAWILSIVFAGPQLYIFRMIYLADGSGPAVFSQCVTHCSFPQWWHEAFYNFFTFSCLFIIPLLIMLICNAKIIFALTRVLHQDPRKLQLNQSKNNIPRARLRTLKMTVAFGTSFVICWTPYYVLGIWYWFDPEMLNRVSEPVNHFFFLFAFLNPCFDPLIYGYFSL

[2] = molecular target: T2, breast cancer receptors (Homo sapiens, UniProt P30968); experiment: Receptor binding potency, breast cancer receptors
T2 construct: from tissue
T2 sequence (P30968 1-328): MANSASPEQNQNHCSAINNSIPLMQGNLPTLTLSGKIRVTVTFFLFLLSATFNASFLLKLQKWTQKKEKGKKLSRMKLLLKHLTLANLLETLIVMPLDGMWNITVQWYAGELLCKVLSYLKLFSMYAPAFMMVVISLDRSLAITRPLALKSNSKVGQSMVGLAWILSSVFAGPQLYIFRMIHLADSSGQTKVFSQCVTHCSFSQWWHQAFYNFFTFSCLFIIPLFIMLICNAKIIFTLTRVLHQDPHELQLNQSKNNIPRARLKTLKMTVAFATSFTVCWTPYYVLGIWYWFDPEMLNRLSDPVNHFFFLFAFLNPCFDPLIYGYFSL

[3] = system: LH-responses; experiment: Hormonal activity of LH-RH analogs (LH-responses rel. to LH-RH); format: cell-based; settings: relative to LH-RH = 1
[4] = system: estrogen independent MXT mouse mammary cancers; experiment: Effect of cytotoxic LH-RH analogs on estrogen independent MXT mouse mammary cancers (KS-47); format: in vivo; settings: for Effect on tumor growth / Mean survival after transplantation / Mean tumor volume on day 10 / Mean tumor volume on day 14 / Mean tumor volume on day 18: daily dose of 30 nmol (equimolar) i.p. for 12 days
Experimental: MXT (3.2) ovex tumor pieces (1 mm^3) were transplanted in female B6 D2 F1 mice. The treatment started one day after transplantation and was continued for 12 days by i.p. injections once a day. Tumors were measured on days 10, 14 and 18, and tumor volume was calculated.

[5] = system: estrogen independent MXT mouse mammary cancers; experiment: Single treatment of estrogen independent MXT mouse mammary cancers (KS-55); format: in vivo; settings: single dose of 650 nmol/20 g mouse (as printed in text)
Experimental: In order to determine the maximum tolerated doses and compare the effects, MXT (3.2) ovex tumor pieces (1 mm^3) were implanted s.c. in female B6 D2 F1 mice. One day after transplantation the mice were randomly divided into groups of five animals and they were treated with a single injection i.p. The groups and doses are shown in the Table 25-1. […] The compounds were dissolved in 0.1% TFA (pH: 2.0). Tumor volume was measured on days 10, 13, 17, and 20.

[6] = system: MCF-7 human mammary carcinoma cell line; format: cell-based
Description: MXT estrogen-independen mouse mammary carcinoma cell line was obtained from Dr. Gunter Berndhart, University of Regensburg, Germany. All the other cell lines used in the determination of the antiproliferative activity of the compounds of this invention were obtained from the American Type Culture Collection (ATCC).
For the evaluation of the activity of the analogs, a colorimetric cytotoxicity assay in microtitration plates was used based on quantification of biomass by staining cells with crystal violet, which correlates very well with determination of cell numbers. (Reile et al.; Anal. Biochem. 187, 262-267, 1990; Bernhardt G. et al, J. Cancer Res. Clin. Oncol. (1992), 118, 35-43; Spruss Th. et al, J. Cancer Res. Clin. Oncol 117, 435-443, 1991; Gillies, R. J., Anal. Biochem. 159, 109-113, 1986; Kueng, W. et al.; Anal. Biochem., 182 16-19, 1989.)
One to two days after seeding cells in 96-well plates the culture medium is exchanged with fresh medium containing the compounds to be tested and fresh medium only for the control cultures. After varying time of incubation, cells are fixed with glutaric dialdehyde and stored under […] at 4° C. until the end of the experiment. Cells are stained with crystal violet and bound stain is extracted with 70% aqueous EtOH. Optical density is measured with EIA Reader (Bio-Tek Instruments) or Biomek 1000 (Beckman) at 590 nm or 600 nm, respectively. Each data point represents the mean value of eight culture wells. T/C values are calculated as T/C=(T-C0)/(C-C0) where T=optical density of treated cultures, C=optical density of control (untreated) cultures, C0 =optical density of cultures at the start of incubation (t=0).
Cells were incubated in IMEM media containing 5% Hl:DCC-FBS (heat inactivated dextran coated charcoal treated fetal bovine serum) on 96 well plates. Relative cell number in treated and control plates was determined by the crystal violet staining method and was expressed as T/C values where T/C=T-C0 /C-C0×100 [T=absorbance of treated cultures, C= absorbance of control cultures, C0 =absorbance of cultures at the start of incubation (t=0). The measured absorbance is proportionate to the cell number.]

[7] = system: estrogen independent MXT mouse mammary cancers; experiment: Earlier experiment with Q2 daily dosing (tumor growth, survival)
[8] = molecular target: T3, bombesin receptors on Swiss 3T3 cell line (Mus musculus, UniProt P21729); experiment: Displacement of [125I-Tyr4]BN binding on Swiss 3T3 cells
T3 construct: host or cells: Swiss 3T3 cells
T3 sequence (P21729 whole entry): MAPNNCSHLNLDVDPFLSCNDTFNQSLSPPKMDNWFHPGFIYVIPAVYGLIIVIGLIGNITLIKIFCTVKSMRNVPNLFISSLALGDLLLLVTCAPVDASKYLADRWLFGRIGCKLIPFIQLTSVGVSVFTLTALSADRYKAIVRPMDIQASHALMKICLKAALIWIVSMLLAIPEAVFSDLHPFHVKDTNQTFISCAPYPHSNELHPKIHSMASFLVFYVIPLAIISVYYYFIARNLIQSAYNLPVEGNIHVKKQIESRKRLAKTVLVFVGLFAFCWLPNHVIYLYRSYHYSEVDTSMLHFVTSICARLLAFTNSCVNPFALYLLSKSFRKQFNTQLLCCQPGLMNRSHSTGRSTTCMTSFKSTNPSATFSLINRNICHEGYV
Experimental: Radio iodination of [Tyr^4 ]BN (Sigma) using a Bio-Rad Enzymobead Radio lodination kit and isolation of mono-iodinated [^125 l-Tyr^4 ]BN was performed as described earlier (1). […] Three to five days after seeding, the confluent cells were washed twice with Hanks' Balanced Salt Solution (HBSS) and incubated for 30 min at 37° C. with 50 pM [^125 l-Tyr^4 ]BN in the absence or presence of several concentrations of unlabeled competitors (Q6^14 gB or BN) in a total volume of 0.5 ml binding buffer (DMEM with 50 mM HEPES, 0.1% bovine serum albumin (BSA), 5 mM MgCl2 and 100 μg/ml bacitracin, pH: 7.4). Nonspecific binding was determined in the presence of 1 μM unlabeled ligand. After three washings with ice-cold HBSS containing 0.1% BSA (pH: 7.4) the cells were detached with 0.05% Trypsin/0.53 mM EDTA solution and transferred to tubes. Radioactivity was measured with a gamma-counter (Micromedic Systems Inc, Huntsville, Ala.). Binding data were evaluated using radio ligand binding analysis programs by McPherson (4). Ki values presented in Table 23-1, were calculated according to the formula of Cheng and Prusoff (5).

Compound | IC50 [1] [nM] | IC50 [2] [nM] | Effect on tumor growth [4] | Mean survival after transplantation [4] [days] | Mean tumor volume on day 10 [4] [mm^3] | Mean tumor volume on day 14 [4] [mm^3] | Mean tumor volume on day 18 [4] [mm^3] | other results
COc1cccc2c1C(=O)c1c(O)c3c(c(O)c1C2=O)C[C@@](O)(C(=O)COC(=O)CCCC(=O)NCCCC[C@@H](NC(=O)[C@H](Cc1ccc(O)cc1)NC(=O)[C@H](CO)NC(=O)[C@H](Cc1c[nH]c2ccccc12)NC(=O)[C@H](Cc1c[nH]cn1)NC(=O)[C@@H]1CCC(=O)N1)C(=O)N[C@@H](CC(C)C)C(=O)N[C@@H](CCCNC(=N)N)C(=O)N1CCC[C@H]1C(=O)NCC(N)=O)C[C@@H]3O[C@H]1C[C@H](N2C=CCC2)[C@H](O)[C@H](C)O1 [Q6^14 gL, [D-Lys^6 (2-pyrrolino-DOX^14 -O-glt)]LH-RH] | 5.59 | 6.7 |  |  |  |  |  | 
CC(C)C[C@H](NC(=O)[C@@H](CCCCN)NC(=O)[C@H](Cc1ccc(O)cc1)NC(=O)[C@H](CO)NC(=O)[C@H](Cc1c[nH]c2ccccc12)NC(=O)[C@H](Cc1c[nH]cn1)NC(=O)[C@@H]1CCC(=O)N1)C(=O)N[C@@H](CCCNC(=N)N)C(=O)N1CCC[C@H]1C(=O)NCC(N)=O [[D-Lys^6]LH-RH] |  | 1.8 | did not affect tumor growth | 23.5 | 165 | 1348 | 4003 | Hormonal activity (LH-responses rel. to LH-RH = 1) [3]: 8
COc1cccc2c1C(=O)c1c(O)c3c(c(O)c1C2=O)C[C@@](O)(C(=O)COC(=O)CCCC(=O)NCCCC[C@@H](NC(=O)[C@H](Cc1ccc(O)cc1)NC(=O)[C@H](CO)NC(=O)[C@H](Cc1c[nH]c2ccccc12)NC(=O)[C@H](Cc1c[nH]cn1)NC(=O)[C@@H]1CCC(=O)N1)C(=O)N[C@@H](CC(C)C)C(=O)N[C@@H](CCCNC(=N)N)C(=O)N1CCC[C@H]1C(=O)NCC(N)=O)C[C@@H]3O[C@H]1C[C@H](N)[C@H](O)[C@H](C)O1 [Q1^14 gL, [D-Lys^6 (DOX^14 -O-glt)]LH-RH] | 2.29 | 7.24 |  |  |  |  |  | Toxicity [5]: nontoxic
COc1cccc2c1C(=O)c1c(O)c3c(c(O)c1C2=O)C[C@@](O)(C(=O)CO)C[C@@H]3O[C@H]1C[C@H](N2CCCC2)[C@H](O)[C@H](C)O1.O=C(O)C(F)(F)F [Compound Q2, 3'-deamino-3'-(pyrrolidine-1"-yl)doxorubicin] |  |  | strong inhibitory effect on tumor growth | 17.9 | 153 | 144 | 137 | T/C Value ([6]; Table 17-1, 10^-8 M; incubation 70 hr): -26; T/C Value ([6]; Table 17-1, 10^-8 M; incubation 120 hr): -19; T/C Value ([6]; Table 17-1; 3 × 10^-8 M; incubation 70 hr): 25; T/C Value ([6]; Table 17-1; 3 × 10^-8 M; incubation 120 hr): 17; T/C Value ([6]; Table 17-1; 10^-8 M; incubation 70 hr): 97; T/C Value ([6]; Table 17-1; 10^-8 M; incubation 120 hr): 94; Toxicity ([4]; daily dose of 30 nmol i.p. for 12 days): severe toxicity; Effect on tumor growth ([7]; 20 nmol daily dose for 17 days): only a moderate inhibitory effect on tumor growth; Mean survival ([7]; 40 nmol dose): 14.6 days; Toxicity ([7]; 40 nmol dose): toxic
COc1cccc2c1C(=O)c1c(O)c3c(c(O)c1C2=O)C[C@@](O)(C(=O)COC(=O)CCCC(=O)N[C@@H](CCC(N)=O)C(=O)N[C@@H](Cc1c[nH]c2ccccc12)C(=O)N[C@@H](C)C(=O)N[C@H](C(=O)NCC(=O)N[C@@H](Cc1c[nH]cn1)C(=O)N[C@H](CN[C@@H](CC(C)C)C(N)=O)CC(C)C)C(C)C)C[C@@H]3O[C@H]1C[C@H](N2C=CCC2)[C@H](O)[C@H](C)O1 [Q6^14 gB, 2-pyrrolino-DOX^14 -O-glt-Gln-Trp-Ala-Val-Gly-His-Leu.PSI.(CH2 --NH)Leu-NH2] |  |  |  |  |  |  |  | Ki [8]: 1 nM

From patent publication US6184374A, “Targeted cytotoxic anthracycline analogs” (priority 1998, dated 2001)
